# According to US7943382B2, “Method for inspecting fat-soluble vitamin and/or fat-soluble food factor by saliva analysis” (Mitsubishi Chemical Medience Corporation, priority 2004, dated 2011):
# Assay: Correlation between the blood level and the content in saliva (CoQ10 ingestion tests part 1 and 2)
# Format: in vivo, human
# Method: 11 volunteers were made to ingest orally two tablets (CoQ10 content: 100 mg in two tablets) of Q10AA Multi (trade name, Shiseido Co., Ltd., hereinafter may be referred to “Supplement S”), a commercial CoQ10 supplement, at 7:00 every morning continuously for a week. Meanwhile, the contents of the fat-soluble vitamins and fat-soluble food factors in the Supplement S are 50 mg/tablet as for CoQ10, and 16.4 mg/tablet as for α-tocopherol. Then parotid saliva, directly collected saliva and heparinized plasma were collected from PM 4:00 to 5:00, three times, before and one week after ingestion and two weeks after discontinuation of ingestion. The volunteer had the mouth rinsed with water, and kept quiet on a chair for 5 minutes, while the volunteer accumulated saliva in the oral cavity and discharge to initialize the oral cavity, followed by collecting saliva. Approximately 1 ml of saliva accumulated in the oral cavity was collected as directly collected saliva. In order to collect saliva from the parotid gland, an absorbent cotton of 2 g was put beneath the tongue to prevent contamination with saliva from sublingual gland and submandibular gland, while the Saliva-sampler comprising a cotton saliva absorber and an indicator which informed termination of collection by color change was inserted between the teeth and the cheek near the open of the parotid gland. […]
smiles,measurement,setting,value
"COC1=C(OC)C(=O)C(C/C=C(\C)CC/C=C(\C)CC/C=C(\C)CC/C=C(\C)CC/C=C(\C)CC/C=C(\C)CC/C=C(\C)CC/C=C(\C)CC/C=C(\C)CCC=C(C)C)=C(C)C1=O [CoQ10, Ubidecarenone]",correlation between concentrations in parotid saliva and plasma,"112 specimens of examples 2 and 3, FIG. 5",good correlation
same,correlation between levels in directly collected saliva and plasma,FIG. 6,weak but recognizable correlation
